Data as given in US11130756B2, “[1,2,4]Triazolo[4,3-A]pyridinyl substituted indole compounds” (BRISTOL-MYERS SQUIBB COMPANY, priority 2017, dated 2021).

Experiments:
Format in all cases: cell-based
human TLR9 = molecular target: T1, human TLR9 (Homo sapiens, UniProt Q9NR96); experiment: TLR9 inhibition reporter assay (HEK-Blue, SEAP); settings: HEK-Blue cells overexpressing human TLR9, ODN2006 5 nM, 22 hour incubation
T1 construct: host or cells: HEK-Blue cells
T1 sequence (Q9NR96 26-1032): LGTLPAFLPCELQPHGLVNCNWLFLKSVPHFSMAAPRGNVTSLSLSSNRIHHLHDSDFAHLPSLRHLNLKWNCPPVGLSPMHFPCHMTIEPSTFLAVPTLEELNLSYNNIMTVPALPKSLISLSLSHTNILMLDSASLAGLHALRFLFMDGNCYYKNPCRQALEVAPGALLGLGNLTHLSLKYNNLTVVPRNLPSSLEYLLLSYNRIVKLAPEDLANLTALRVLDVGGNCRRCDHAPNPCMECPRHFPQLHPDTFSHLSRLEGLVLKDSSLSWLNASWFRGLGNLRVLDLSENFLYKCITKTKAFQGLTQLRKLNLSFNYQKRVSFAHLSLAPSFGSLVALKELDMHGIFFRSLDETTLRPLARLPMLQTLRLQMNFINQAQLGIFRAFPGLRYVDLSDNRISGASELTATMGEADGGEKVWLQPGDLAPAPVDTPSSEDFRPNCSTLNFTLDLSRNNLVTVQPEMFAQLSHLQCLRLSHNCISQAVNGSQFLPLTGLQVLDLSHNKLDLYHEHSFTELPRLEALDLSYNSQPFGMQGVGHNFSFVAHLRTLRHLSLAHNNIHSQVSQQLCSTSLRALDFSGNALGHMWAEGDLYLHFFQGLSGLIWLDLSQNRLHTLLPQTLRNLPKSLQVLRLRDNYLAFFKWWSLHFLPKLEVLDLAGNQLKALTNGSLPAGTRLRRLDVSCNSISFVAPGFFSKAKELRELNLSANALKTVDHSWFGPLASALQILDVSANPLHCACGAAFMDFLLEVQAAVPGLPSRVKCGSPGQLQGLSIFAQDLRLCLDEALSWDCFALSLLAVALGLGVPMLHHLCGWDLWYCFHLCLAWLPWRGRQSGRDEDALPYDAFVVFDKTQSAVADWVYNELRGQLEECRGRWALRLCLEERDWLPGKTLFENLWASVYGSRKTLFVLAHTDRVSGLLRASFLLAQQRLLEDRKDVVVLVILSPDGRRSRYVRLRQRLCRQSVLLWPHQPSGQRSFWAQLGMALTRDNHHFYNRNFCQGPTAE
Method: (§1) TLR7/8/9 Inhibition Reporter Assays
(§2) HEK-Blue™-cells (Invivogen) overexpressing human TLR7, TLR8 or TLR9 receptors were used for screening inhibitors of these receptors using an inducible SEAP (secreted embryonic alkaline phosphatase) reporter gene under the control of the IFN-β minimal promoter fused to five NF-κB and AP-1-binding sites. Briefly, cells are seeded into Greiner 384 well plates (15000 cells per well for TLR7, 20,000 for TLR8 and 25,000 for TLR9) and then treated with test compounds in DMSO to yield a final dose response concentration range of 0.05 nM-50 μM. After a 30 minute compound pre-treatment at room temperature, the cells are then stimulated with a TLR7 ligand (gardiquimod at a final concentration of 7.5 μM), TLR8 ligand (R848 at a final concentration of 15.9 μM) or TLR9 ligand (ODN2006 at a final concentration of 5 nM) to activate NF-κB and AP-1 which induce the production of SEAP. After a 22 hour incubation at 37° C., 5% CO2, SEAP levels are determined with the addition of HEK-Blue™ Detection reagent (Invivogen), a cell culture medium that allows for detection of SEAP, according to manufacturer's specifications. The percent inhibition is determined as the % reduction in the HEK-Blue signal present in wells treated with agonist plus DMSO alone compared to wells treated with a known inhibitor.

human TLR7 = molecular target: T2, human TLR7 (Homo sapiens, UniProt Q9NYK1); experiment: TLR7 inhibition reporter assay (HEK-Blue, SEAP); settings: HEK-Blue cells overexpressing human TLR7, gardiquimod 7.5 μM, 22 hour incubation
T2 construct: host or cells: HEK-Blue cells
T2 sequence (Q9NYK1 27-1049): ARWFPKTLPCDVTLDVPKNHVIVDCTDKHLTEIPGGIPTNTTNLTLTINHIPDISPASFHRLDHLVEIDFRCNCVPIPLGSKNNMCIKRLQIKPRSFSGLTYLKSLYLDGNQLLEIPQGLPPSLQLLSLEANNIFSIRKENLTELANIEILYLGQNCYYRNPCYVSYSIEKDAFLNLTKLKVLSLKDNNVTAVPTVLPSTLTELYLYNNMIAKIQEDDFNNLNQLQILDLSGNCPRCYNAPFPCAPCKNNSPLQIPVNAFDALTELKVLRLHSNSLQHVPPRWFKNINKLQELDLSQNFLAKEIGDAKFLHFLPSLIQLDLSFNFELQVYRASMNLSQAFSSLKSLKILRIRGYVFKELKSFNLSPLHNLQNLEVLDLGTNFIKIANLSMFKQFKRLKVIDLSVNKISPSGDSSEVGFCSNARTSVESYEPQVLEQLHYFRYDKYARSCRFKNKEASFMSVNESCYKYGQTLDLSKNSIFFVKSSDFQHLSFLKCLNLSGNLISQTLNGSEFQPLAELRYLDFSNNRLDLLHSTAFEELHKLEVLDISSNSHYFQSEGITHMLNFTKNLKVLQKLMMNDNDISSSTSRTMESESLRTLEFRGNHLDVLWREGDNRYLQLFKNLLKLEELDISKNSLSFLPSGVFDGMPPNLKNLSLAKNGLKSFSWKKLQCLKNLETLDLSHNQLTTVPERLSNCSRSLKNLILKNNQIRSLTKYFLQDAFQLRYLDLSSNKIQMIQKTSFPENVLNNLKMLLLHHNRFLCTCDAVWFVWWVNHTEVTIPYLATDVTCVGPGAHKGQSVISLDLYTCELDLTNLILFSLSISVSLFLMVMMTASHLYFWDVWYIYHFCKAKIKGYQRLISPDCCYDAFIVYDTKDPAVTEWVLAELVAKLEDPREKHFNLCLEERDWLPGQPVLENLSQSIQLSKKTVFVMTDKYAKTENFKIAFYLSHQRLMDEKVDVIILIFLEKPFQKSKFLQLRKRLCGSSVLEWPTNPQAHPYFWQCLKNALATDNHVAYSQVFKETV
Method: as §1, §2

human TLR8 = molecular target: T3, human TLR8 (Homo sapiens, UniProt Q9NR97); experiment: TLR8 inhibition reporter assay (HEK-Blue, SEAP); settings: HEK-Blue cells overexpressing human TLR8, R848 15.9 μM, 22 hour incubation
T3 construct: host or cells: HEK-Blue cells
T3 sequence (Q9NR97 27-1041): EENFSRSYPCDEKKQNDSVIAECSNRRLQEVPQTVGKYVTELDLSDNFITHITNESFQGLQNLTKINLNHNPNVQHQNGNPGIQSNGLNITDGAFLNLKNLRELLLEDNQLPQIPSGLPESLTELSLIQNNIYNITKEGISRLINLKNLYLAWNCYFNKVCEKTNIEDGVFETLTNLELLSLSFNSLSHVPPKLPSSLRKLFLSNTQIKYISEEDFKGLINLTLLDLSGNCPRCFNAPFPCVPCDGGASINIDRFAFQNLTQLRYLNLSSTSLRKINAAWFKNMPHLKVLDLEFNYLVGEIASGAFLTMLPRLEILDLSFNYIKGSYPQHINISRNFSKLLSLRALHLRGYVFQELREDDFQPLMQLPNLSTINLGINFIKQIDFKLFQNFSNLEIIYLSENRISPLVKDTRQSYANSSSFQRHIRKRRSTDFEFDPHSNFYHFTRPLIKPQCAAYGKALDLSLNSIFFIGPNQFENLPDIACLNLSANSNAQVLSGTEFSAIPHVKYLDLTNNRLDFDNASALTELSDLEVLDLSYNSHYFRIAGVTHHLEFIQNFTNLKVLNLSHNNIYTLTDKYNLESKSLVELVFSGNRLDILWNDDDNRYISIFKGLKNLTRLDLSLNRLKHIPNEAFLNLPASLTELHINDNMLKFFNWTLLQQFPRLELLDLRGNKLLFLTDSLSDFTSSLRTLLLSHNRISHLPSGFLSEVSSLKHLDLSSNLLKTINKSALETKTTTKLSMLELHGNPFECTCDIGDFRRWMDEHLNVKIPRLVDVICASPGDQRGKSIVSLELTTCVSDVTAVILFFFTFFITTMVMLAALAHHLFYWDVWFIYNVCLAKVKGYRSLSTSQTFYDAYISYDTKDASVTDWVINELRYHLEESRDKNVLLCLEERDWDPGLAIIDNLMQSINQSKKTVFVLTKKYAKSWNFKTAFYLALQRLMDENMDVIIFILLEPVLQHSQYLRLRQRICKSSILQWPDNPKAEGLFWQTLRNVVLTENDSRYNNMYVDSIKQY
Method: as §1, §2

Row | SMILES | IC50 (human TLR9) | IC50 (human TLR7) | IC50 (human TLR8)
1 | CNC(=O)CN1CCC(c2ccc3[nH]c(-c4ccc5nncn5c4)c(C(C)C)c3c2)CC1 [Example 13, 2-(4-(2-([1,2,4]triazolo[4,3-a]pyridin-6-yl)-3-isopropyl-1H-indol-5-yl)piperidin-1-yl)-N-methylacetamide] | 1110 nM | 6.8 nM | 98 nM
2 | CC(C)c1c(-c2ccc3nncn3c2)[nH]c2ccc(C3CCN(CC(=O)N(C)C)CC3)cc12 [Example 14, 2-(4-(2-([1,2,4]triazolo[4,3-a]pyridin-6-yl)-3-isopropyl-1H-indol-5-yl)piperidin-1-yl)-N,N-dimethylacetamide] | 222 nM | 31.8 nM | 308 nM
3 | CNC(=O)CN1CCC(c2ccc3[nH]c(-c4cn5cnnc5cc4C)c(C(C)C)c3c2)CC1 [Example 15, 2-(4-(3-isopropyl-2-(7-methyl-[1,2,4]triazolo[4,3-a]pyridin-6-yl)-1H-indol-5-yl)piperidin-1-yl)-N-methylacetamide] | 1100 nM | 15 nM | 245 nM
4 | CNC(=O)CN1CCC(c2ccc3[nH]c(-c4cc(C)c5nncn5c4)c(C(C)C)c3c2)CC1 [Example 16, 2-(4-(3-isopropyl-2-(8-methyl-[1,2,4]triazolo[4,3-a]pyridin-6-yl)-1H-indol-5-yl)piperidin-1-yl)-N-methylacetamide] | 2520 nM | 2 nM | 10.2 nM
5 | CNC(=O)CN1CCC(c2ccc3[nH]c(-c4ccc5nnc(C)n5c4)c(C(C)C)c3c2)CC1 [Example 17, 2-(4-(3-isopropyl-2-(3-methyl-[1,2,4]triazolo[4,3-a]pyridin-6-yl)-1H-indol-5-yl)piperidin-1-yl)-N-methylacetamide] | 2770 nM | 44.7 nM | 31.4 nM
6 | Cc1cc2nncn2cc1-c1[nH]c2ccc(C3CCN(CC(=O)N(C)C)CC3)cc2c1C(C)C [Example 18, 2-(4-(3-isopropyl-2-(7-methyl-[1,2,4]triazolo[4,3-a]pyridin-6-yl)-1H-indol-5-yl)piperidin-1-yl)-N,N-dimethylacetamide] | 685 nM | 65.9 nM | 715 nM
7 | Cc1nnc2ccc(-c3[nH]c4ccc(C5CCN(CC(=O)N(C)C)CC5)cc4c3C(C)C)cn12 [Example 19, 2-(4-(3-isopropyl-2-(3-methyl-[1,2,4]triazolo[4,3-a]pyridin-6-yl)-1H-indol-5-yl)piperidin-1-yl)-N,N-dimethylacetamide] | 1660 nM | 48.6 nM | 29.6 nM
8 | Cc1cc2nncn2cc1-c1[nH]c2ccc(C3CCN(Cc4ncn(C)n4)CC3)cc2c1C(C)C [Example 20, 6-(3-isopropyl-5-(1-((1-methyl-1H-1,2,4-triazol-3-yl)methyl)piperidin-4-yl)-1H-indol-2-yl)-7-methyl-[1,2,4] triazolo[4,3-a]pyridine] | 19600 nM | 69.6 nM | 408 nM
9 | Cc1cc(-c2[nH]c3ccc(C4CCN(Cc5ncn(C)n5)CC4)cc3c2C(C)C)cn2cnnc12 [Example 21, 6-(3-isopropyl-5-(1-((1-methyl-1H-1,2,4-triazol-3-yl)methyl)piperidin-4-yl)-1H-indol-2-yl)-8-methyl-[1,2,4]triazolo[4,3-a]pyridine] | 4670 nM | 3.9 nM | 10.1 nM
10 | Cc1nnc2ccc(-c3[nH]c4ccc(C5CCN(Cc6ncn(C)n6)CC5)cc4c3C(C)C)cn12 [Example 22, 6-(3-isopropyl-5-(1-((1-methyl-1H-1,2,4-triazol-3-yl)methyl)piperidin-4-yl)-1H-indol-2-yl)-3-methyl-[1,2,4]triazolo[4,3-a]pyridine] | ≥ 50000 nM | 136 nM | 17.6 nM
11 | CC(C)c1c(-c2ccc3nncn3c2)[nH]c2ccc(C3CCN(Cc4ncn(C)n4)CC3)cc12 [Example 23, 6-(3-isopropyl-5-(1-((1-methyl-1H-1,2,4-triazol-3-yl)methyl)piperidin-4-yl)-1H-indol-2-yl)-[1,2,4]triazolo[4,3-a]pyridine] | ≥ 50000 nM | 54.9 nM | 375 nM
12 | CNC(=O)CN1CCC(c2ccc3[nH]c(-c4ccc5nncn5c4C)c(C(C)C)c3c2)CC1 [Example 24, 2-(4-(3-isopropyl-2-(5-methyl-[1,2,4]triazolo[4,3-a]pyridin-6-yl)-1H-indol-5-yl)piperidin-1-yl)-N-methylacetamide] | 8930 nM | 40.8 nM | 31.9 nM
